The text below walks through data of paper PMC12040169 (PLOS Biology, 2025).

Usually viability stands for a read-out of living cells in per cent, often relative to untreated cells.

The series in a line: in vitro. To be noted: human, hela cells, % viability.
In the case of `CC(=O)Nc1cccc(C(=O)N(Cc2ccccn2)CC2CCCO2)c1` (centres unmarked) [CBK306867], the viability at 28.5 h, 10 µM came to 90.5%.
For `CCCNC(=O)CSc1ncccc1C(=O)O` [CBK287202] the value was 78.6%; for `COc1ccc(C2CNC(=O)C2)cc1OC1CCCC1` (centres unmarked) [CBK011603], 86.5%.
For `O=C(O)c1ccccc1C(=O)N1CCN(Cc2ccc3c(c2)OCO3)CC1` [CBK074751] the value was 97.9%; for `O=c1n(CC2CCCCC2)c2ccccc2n1S(=O)(=O)c1ccc2ccccc2c1` [CBK106527], 92.5%; for `Cc1cc(CN(C)C(=O)c2cc3sccc3[nH]2)no1` [CBK304340], 82.7%.
As to `Cc1ccc(F)cc1C(=O)NCC1CCN(c2cnn(C)c(=O)c2)C1` (centres unmarked) [CBK307235], the viability at 28.5 h, 10 µM amounted to 92.2%.
With `CC(Cc1nc(C2CC2)cs1)n1cc(Cl)cn1` (centres unmarked) [CBK304707], the viability at 28.5 h, 10 µM was found to be 90.1%.
`O=[N+]([O-])c1cc(Br)cc(/C=N/Nc2nc3ccccc3[nH]2)c1O` [CBK263486]: the viability at 28.5 h, 10 µM is 89.1%.
`CSc1ccc(-c2cn3ccnc3c(N3CCN(CCO)CC3)n2)cc1` [CBK066596]: the viability at 28.5 h, 10 µM turned out to be 86.6%.
For `O=C1NC2(CCCC2)C(=O)N1Cc1cnn(-c2ccccc2)n1` [CBK305568] the value was 103%; for `COc1cc(Nc2nc(-c3cccc(C(=O)NCCN(C)C)c3)cn3ccnc23)cc(OC)c1OC` [CBK066250], 89%; for `CN(Cc1ccc(-c2ccc(CO)cc2)nc1)C1CCN(C(=O)OC(C)(C)C)CC1` [CBK173453], 81.3%.
As for `O=c1c2cc(F)ccc2nc2n1CCN(Cc1ccccc1)CC2` [CBK285300], the viability at 28.5 h, 10 µM stood at 94.5%.
`O=C(Nc1cccc2ccccc12)C1CCCN1S(=O)(=O)c1ccc(Cl)cc1` (centres unmarked) [CBK138930]: the viability at 28.5 h, 10 µM came out at 92.9%.
Take `O=c1c2ccccc2nc2n1CCN(Cc1ccc(F)c(F)c1)CC2` [CBK284816]: the viability at 28.5 h, 10 µM is 96.6%.
With `Cc1cc(NS(=O)(=O)c2cccc(Cl)c2C)on1` [CBK022499], the viability at 28.5 h, 10 µM was 92%.
For the compound `Fc1ccc(-c2cc(CC3(NCc4ccc5c(c4)OCO5)COC3)no2)cc1` [CBK289654], the viability at 28.5 h, 10 µM is 109%.
As for `COC(=O)c1c(NC(=O)C(=O)NCc2ccco2)sc2c1CCCC2` [CBK269269], the figure is 87.5%.
For the compound `COc1cccc2cc(C(=O)NCCCSC)oc12` [CBK149793], the viability at 28.5 h, 10 µM came to 99.6%.
On to `NC(=O)CN1CC2(CCNCC2)c2ccccc21` [CBK116314], for which the viability at 28.5 h, 10 µM amounted to 117%.
For the compound `O=C(CNC(=O)C1CC=CCC1C(=O)O)Nc1ccc(N2CCCCCC2)cc1` (centres unmarked) [CBK295603], the viability at 28.5 h, 10 µM was 90.8%.
For `O=C(c1[nH]c2ccccc2c1NS(=O)(=O)Cc1ccccc1[N+](=O)[O-])N1CCOCC1` [CBK050079] the value was 107%.
For `Cc1ccccc1C(NC(=O)C1CCN(S(=O)(=O)C(C)C)CC1)c1ccccn1` (centres unmarked) [CBK059711] the value was 104%; for `CCCNC(=O)c1ccc(C)c(NC(=O)N[C@@H]2C[C@@H](CO)N(C)C2)c1` [CBK307451], 92.9%.
For `c1cnc(-c2ccc3c(c2)OCO3)c(OC2CCCCC2)n1` [CBK106706] the value was 92.4%; for `CC(C)(CO)NC(=O)COc1ccc(Cl)cc1` [CBK261833], 103%; for `O=S(=O)(Nc1ccc(N2CCCCC2)cc1)c1cccc2cccnc12` [CBK263077], 93.1%.
As to `Oc1ccc(Nc2cc(-c3ccccc3)ncn2)cc1` [CBK291157], the viability at 28.5 h, 10 µM turned out to be 79.8%.
As for `O=C(Nc1ccc(Br)cc1C(=O)O)c1ccc2c(c1)C(=O)N(Cc1cccnc1)C2=O` [CBK266776], the figure is 96.7%; as for `CCN(CC)CCNc1nc2c(=O)[nH]c(=O)n(C)c2[nH]1` [CBK287918], 116%.
As for `O=C(O)CCCCC1SCC2NC(=O)NC21` (centres unmarked) [CBK012026G], the figure is 105%.
`Cn1ncnc1COc1ccc(S(=O)(=O)N2CCCCC2CN)cc1` (centres unmarked) [CBK304313C]: the viability at 28.5 h, 10 µM was determined as 82.3%.
For `CCN1CCN(c2ccc(NS(=O)(=O)c3ccccc3)c3ccccc23)CC1` [CBK200011C] the value was 88.3%; for `COc1ccc2[nH]c(=O)c(CN(CCN(C)C)C(=S)Nc3ccc(F)cc3)cc2c1` [CBK135011], 97.1%; for `CC(C)(C)c1cc(CCCOC(=O)CNc2ccccc2)cc(C(C)(C)C)c1O` [CBK261939], 101%.
For `Cc1cc(-c2ccc(=O)n(C3CCN(C(=O)C4CC4)CC3)n2)c(C)o1` [CBK284462] the value was 87.2%.
Turning to `COCc1nnc(S)n1-c1cccc(OC)c1` [CBK288424], the viability at 28.5 h, 10 µM is 87.7%.
As for `NNC(=O)CNS(=O)(=O)c1ccccc1` [CBK261967], the figure is 97.9%; as for `Cc1cc(C)n(CC(O)CN(Cc2ccco2)CC2CC=CCC2)n1` (centres unmarked) [CBK283159], 95.6%.
As for `C1CN=C(SCCCSC2=NCCCN2)NC1` [CBK278210B], the figure is 110%; as for `O=S(=O)(NC1c2cccc3cccc(c23)C1Sc1ncccn1)c1ccc(Cl)cc1` (centres unmarked) [CBK264638], 94.3%.
For `S=C(NCC1CCN(C(=S)NC2CCCCC2)CC1)NC1CCCCC1` [CBK004987] the value was 87.7%; for `CCOC(=O)C1(Cc2cc(-c3ccc(F)cc3)no2)CCCNC1` (centres unmarked) [CBK284579], 84%; for `OCCn1ncc2c(NCc3ccc(-n4cccn4)nc3)ncnc21` [CBK306326], 87.8%.
`N#Cc1ccccc1NC(=O)CN1CCCCCC1` [CBK270088]: the viability at 28.5 h, 10 µM turned out to be 87.8%.
As for `c1cncc(COc2cc(N3CCCC3)ncn2)c1` [CBK115894], the figure is 96.9%.
For `CC1CCCN(Cc2nc3c([nH]2)c(=O)n(C)c(=O)n3C)C1` (centres unmarked) [CBK306054] the value was 88.7%; for `CCn1cc(-c2cncn2CCCn2ccnc2C(C)C)cn1` [CBK282244], 89.4%.
`Cc1cccc(C)c1NC(=O)c1c(NC(=O)c2ccco2)sc2c1CCC(C)C2` (centres unmarked) [CBK265550]: the viability at 28.5 h, 10 µM came out at 107%.
As for `Cn1c(=O)c2c(nc(CN3CCCCC3)n2CCCc2ccccc2)n(C)c1=O` [CBK269521], the figure is 96.5%.
As for `Cc1cc(C)n(CCCC(=O)N2CCC3(CCCO3)CC2)n1` [CBK304397], the figure is 102%; as for `Cc1cc(C)n(-c2nc3c(c(=O)[nH]c(=O)n3C)n2CCc2ccccc2)n1` [CBK087129], 90.2%.
On to `Cc1cnn(CC(=O)NC(Cc2ccsc2)c2nc(C)cs2)c1` (centres unmarked) [CBK285151], for which the viability at 28.5 h, 10 µM stood at 86.6%.
As for `Cc1cc(NC(=O)c2ccccc2O)n(C)n1` [CBK000190], the figure is 107%; as for `CC(=O)N(Cc1ccccc1)C1CCCc2c1[nH]c1ccc(C)cc21` (centres unmarked) [CBK261810], 98%.
For the compound `CC(C)(C)SCCNc1nc(Cl)nc(N2CCSCC2)n1` [CBK018768], the viability at 28.5 h, 10 µM was 80.2%.
For `CCCC/C=C/c1cnc(N)c(-c2ccc(N3CCOCC3)cc2)n1` [CBK063891] the value was 101%; for `Cc1ccc(-c2nccnc2OCc2ccco2)cc1C` [CBK106863], 90.2%.
As for `Cc1nn(C)c(C)c1-c1ccnc(NCCC2(O)CCN(C)CC2)n1` [CBK307659], the figure is 86.1%; as for `CS(=O)(=O)N1CC2(CCN(Cc3cc(=O)[nH]c(=O)[nH]3)CC2)c2ccccc21` [CBK126679], 103%.
For the compound `Cc1cccc(-c2ncc(NC(=O)CC3OC(=O)c4ccccc43)nc2-c2ccc(N)cc2)c1` (centres unmarked) [CBK036749], the viability at 28.5 h, 10 µM amounted to 91.5%.
`CC(C)CCNC(=O)N1CCN(Cc2ccccc2)CC1` [CBK155657]: the viability at 28.5 h, 10 µM came out at 87.2%.
As for `CN(C)CCNCc1ccc(-c2cccc(C(=O)O)c2)o1` [CBK287250], the figure is 89.9%.
With `O=C(O)[C@H]1CN(C(=O)c2cccs2)C[C@@H]1c1ccc(F)cc1` [CBK283734], the viability at 28.5 h, 10 µM was determined as 98.1%.
As for `Cc1c(C(=O)O)sc2nc3c(Cl)cc(C(=O)c4ccccc4O)cn3c(=O)c12` [CBK295619], the viability at 28.5 h, 10 µM came to 98.5%.
On to `CCC(CC)C(=O)N(C)c1c(C)nc2ccc(C(=O)N3CCN(S(=O)(=O)CC)CC3)cn12` [CBK146524], for which the viability at 28.5 h, 10 µM came out at 92%.
As to `COc1nccnc1N1CCN(CC(=O)Nc2c(C)cccc2C)CC1` [CBK084220], the viability at 28.5 h, 10 µM came out at 89.1%.
For `CC(=O)c1ccccc1-c1ccc(C(=O)N2CCN(C)CC2)c(NCC2CC2)n1` [CBK076613] the value was 92.8%.
As for `Nc1ccc2c(c1)/C(=C/c1c[nH]c3ncccc13)C(=O)N2` [CBK010155T], the figure is 103%.
As for `O=C(Nc1ccccc1)c1ccc2c(c1)C(=O)N(c1cccc(N3C(=O)c4ccc(C(=O)Nc5ccccc5)cc4C3=O)n1)C2=O` [CBK261197], the figure is 91.5%.
Consider `CC(=O)CSc1nc2c(c(=O)n(C)c(=O)n2C)n1CCCc1ccccc1` [CBK269581], for which the viability at 28.5 h, 10 µM came out at 84.6%.
For the compound `COc1ccccc1-c1noc(CSc2nnc(-c3ccccc3)n2-c2ccc(C)c(C)c2)n1` [CBK269058], the viability at 28.5 h, 10 µM amounted to 105%.
As for `COc1ccccc1-c1ccc(NC(=O)CCc2ccc3c(c2)n(C)c(=O)n3C)cc1` [CBK286527], the figure is 93.1%; as for `S=c1[nH]nc(Nc2ccccc2)n1-c1ccccc1` [CBK026332], 123%.
For `CC1=C(C(=O)Nc2ccccc2)C(c2ccccc2)C(C#N)=C(SCc2ccncc2)N1` (centres unmarked) [CBK267448] the value was 90.2%; for `CCC(Sc1ccc2nnc(-c3ccc(C)cc3)n2n1)C(=O)O` (centres unmarked) [CBK287524], 104%.
Consider `CN(CCCN1CCCCC1)C(=O)C1Cc2cc(Cl)ccc2O1` (centres unmarked) [CBK282162], for which the viability at 28.5 h, 10 µM was 104%.
On to `CC(C)N(C)CC(=O)N(C)c1nc2c(s1)CC(c1ccccc1)CC2` (centres unmarked) [CBK305535], for which the viability at 28.5 h, 10 µM was found to be 93.7%.
For `Cc1ccc(NC(=O)C(=O)NCCCN2CCOCC2)cc1Cl` [CBK264806] the value was 97.4%.
